Test results from the RepoRT retention time repository (doi:10.1021/acs.analchem.1c00972).

Assay: RP, Phenomenex Synergi Polar-RP, 100 × 3 mm, 2.5 µm, 40 °C, 0.4 mL/min, estimated dead time 1.1 min; A: water + 1 mM ammonium fluoride; B: methanol + 1 mM ammonium fluoride; C: acetonitrile; D: 50% isopropanol + 50% acetone; gradient (min/%B/%C/%D) 0/5/0/0 2/5/0/0 8/95/0/0 12/80/15/0 19/25/70/0 19.5/0/25/70 21.5/0/25/70 22.5/0/25/0 23/5/0/0
Details: stereoisomer not certain

Row | LC retention time | SMILES
1 | 10.4 min | CC(C)c1c(C(=O)Nc2ccccc2)c(-c2ccccc2)c(-c2ccc(F)cc2)n1CCC(O)CC(O)CC(=O)O (stereo not given) [Atorvastatin]
2 | 3.17 min | Nc1nc2c(ncn2COCCO)c(=O)[nH]1 [Acyclovir]
3 | 9.89 min | O=c1c(-c2ccc(O)cc2)coc2cc(O)ccc12 [Daidzein]
4 | 9.75 min | CC(C(=O)O)c1cccc(C(=O)c2ccccc2)c1 (stereo not given) [Ketoprofen]
5 | 10.3 min | O=c1c(-c2ccc(O)cc2)coc2cc(O)cc(O)c12 [Genistein]
6 | 11.3 min | CCC1=C(C)CN(C(=O)NCCc2ccc(S(=O)(=O)NC(=O)NC3CCC(C)CC3)cc2)C1=O (stereo not given) [Glimepiride]
7 | 7.88 min | COCCN(C(=O)CS(=O)(=O)O)c1c(C)cccc1C [Dimethachlor ESA]
8 | 7.83 min | Cc1cccc(C)c1N(Cn1cccn1)C(=O)CS(=O)(=O)O [Metazachlor ESA]
9 | 11.3 min | O=C(Nc1ccc(Cl)cc1)Nc1ccc(Cl)c(Cl)c1 [Triclocarban]
10 | 10.6 min | Cc1cccc(Nc2ccccc2C(=O)O)c1C [Mefenamic acid]
11 | 11.2 min | CCOC(=O)C1=C(C)NC(C)=C(C(=O)OC)C1c1cccc([N+](=O)[O-])c1 (stereo not given) [Nitrendipin]
12 | 16.2 min | O=C(c1ccc(OCCN2CCCCC2)cc1)c1c(-c2ccc(O)cc2)sc2cc(O)ccc12 [Raloxifene]
13 | 1.48 min | Nc1ccc(S(=O)(=O)O)c(N)c1 [24-diaminobenzenesulfonic acid]
14 | 7.44 min | O=S(=O)(O)c1ccc2nc(-c3ccccc3)[nH]c2c1 [Phenylbenzimidazole sulfonic acid]
15 | 2.44 min | O=c1[nH]c(=O)c2cn[nH]c2[nH]1 [Oxypurinol]
16 | 8 min | OCC1OC(OC2(CCl)OC(CCl)C(O)C2O)C(O)C(O)C1Cl (stereo not given) [Sucralose]
17 | 9.98 min | CCCC1CC(C(=O)NC(C(C)O)C2OC(SC)C(O)C(O)C2O)N(C)C1 (stereo not given) [Lincomycin]
18 | 9.29 min | CCCCC(=O)N(Cc1ccc(-c2ccccc2-c2nn[nH]n2)cc1)C(C(=O)O)C(C)C (stereo not given) [Valsartan]
19 | 1.82 min | O=C(O)Cc1ccc(S(=O)(=O)O)cc1 [(4-Sulfophenyl)acetic acid]
20 | 8.57 min | CC(C)(Oc1ccc(Cl)cc1)C(=O)O [Clofibric acid]
21 | 7 min | Oc1cccc2n[nH]nc12 [4-Hydroxybenzotriazole]
22 | 2.53 min | O=c1cc[nH]c(=S)[nH]1 [2-thiouracil]
23 | 2.24 min | NC(=O)c1ccccc1C(=O)O [Phthalamic acid]
24 | 1.65 min | O=S(=O)(O)c1ccc2ccc(S(=O)(=O)O)cc2c1 [27-Naphthalenedisulfonic acid]
25 | 6.31 min | O=S(=O)(O)c1nc2ccccc2s1 [2-Benzothiazolesulfonic acid]

Row | SMILES | LC retention time
26 | N#Cc1nn(-c2c(Cl)cc(C(F)(F)F)cc2Cl)c(N)c1S(=O)C(F)(F)F (stereo not given) [Fipronil] | 10.9 min
27 | O=[N+]([O-])c1ccc(O)c([N+](=O)[O-])c1 [24-Dinitrophenol] | 7.62 min
28 | Oc1cc(Cl)ccc1Oc1ccc(Cl)cc1Cl [Triclosan] | 11.5 min
29 | Oc1ccc(Cl)cc1Cl [24-Dichlorophenol] | 8.49 min
30 | CCC(=O)Nc1ccc(Cl)c(Cl)c1 [Propanil] | 10.6 min
31 | O=S(=O)(c1ccc(O)cc1)c1ccc(O)cc1 [Bisphenol S] | 9.36 min
32 | Oc1cc(Cl)c(Cl)c(Cl)c1 [345-trichlorophenol] | 10.8 min
33 | Cc1cc(Cl)ccc1OC(C)C(=O)O (stereo not given) [Mecoprop] | 8.57 min
34 | Cc1cc(Cl)ccc1OCC(=O)O [MCPA] | 8.16 min
35 | CCCN(CCC)c1c([N+](=O)[O-])cc(S(N)(=O)=O)cc1[N+](=O)[O-] [Oryzalin] | 11.2 min
